Experimental data: patent US10702495B2, “Method and compositions for treating dystrophies and myotonia” (priority 2017, dated 2020)

How the values were obtained:
dystrophic mdx mice = conditions: injection; mostly via activation of TRPV1 and TRPA1; cited from earlier work
patients with myotonia = experiment: Disease history: previous treatments for myotonia and myalgia (case reports); conditions: for effect of previous treatment on myotonia, patient 6: CLCN1-congenital myotonia; for effect of previous treatment on myotonia, patient 6 / outcome of previous treatment of myotonia, patient 2 / outcome of previous treatment of myalgia, patient 2: disease history; for outcome of previous treatment of myotonia, patient 2 / outcome of previous treatment of myalgia, patient 2: DM2
Description: This person was diagnosed with DM2. As DM2-related comorbidities they have diabetes mellitus type 2 without diabetic neuropathy, and controlled paroxysmal atrial fibrillation. Their main muscular complaints have always been a severe grip myotonia and myotonia of the legs while walking, as well as persistent myalgia especially at lower back. In the last several years they developed a proximal and axial muscle weakness (MRC grade 4). […] After discussing potential risks and benefits, a compassionate use with low dose CBD/THC has been started.
This person was diagnosed with CLCN1-congenital myotonia. They have a severe therapy-resistant grip and generalized myotonia.

C=C(C)[C@@H]1CCC(C)=C[C@H]1c1c(O)cc(CCCCC)cc1O [CBD, Cannabidiol]
myotube formation and inflammation (dystrophic mdx mice): promoted myotube formation and reduced inflammation

NC(=O)N1c2ccccc2C=Cc2ccccc21 [carbamazepine]
effect of previous treatment on myotonia, patient 6 (patients with myotonia): no relevant improvement of myotonia was obtained
outcome of previous treatment of myotonia, patient 2 (patients with myotonia): suspended due to inefficacy and risk of cardiac arrhythmias

O=C(NCC1CCCCN1)c1cc(OCC(F)(F)F)ccc1OCC(F)(F)F (stereo not shown) [flecainid]
effect of previous treatment on myotonia, patient 6 (patients with myotonia): no relevant improvement of myotonia was obtained

CC(C)Cc1ccc(C(C)C(=O)O)cc1 (stereo not shown) [ibuprofen]
outcome of previous treatment of myalgia, patient 2 (patients with myotonia): unsuccessfully treated

Nc1nnc(-c2cccc(Cl)c2Cl)c(N)n1 [lamotrigine]
effect of previous treatment on myotonia, patient 6 (patients with myotonia): no relevant improvement of myotonia was obtained

COc1ccccc1OCC(O)COC(N)=O (stereo not shown) [methocarbamol]
outcome of previous treatment of myalgia, patient 2 (patients with myotonia): unsuccessfully treated

Cc1cccc(C)c1OCC(C)N (stereo not shown) [mexiletine]
effect of previous treatment on myotonia, patient 6 (patients with myotonia): improved the myotonia
outcome of previous treatment of myotonia, patient 2 (patients with myotonia): suspended due to inefficacy and risk of cardiac arrhythmias
drug-related side effect of previous treatment, patient 6 (patients with myotonia; resolved on drug discontinuation): severe major depression

CC(C)C[C@H](CN)CC(=O)O [pregabalin]
outcome of previous treatment of myalgia, patient 2 (patients with myotonia): unsuccessfully treated
outcome of previous treatment of myotonia, patient 2 (patients with myotonia): suspended due to inefficacy and risk of cardiac arrhythmias

Cc1ccc(C(=O)C(C)CN2CCCCC2)cc1 (stereo not shown) [tolperisone]
effect of previous treatment on myotonia, patient 6 (patients with myotonia): no relevant improvement of myotonia was obtained
